Results taken from US10525041B2, “Fluoroalkyl-substituted aryltriazole derivatives and uses thereof” (BAYER PHARMA AKTIENGESELLSCHAFT, priority 2016, dated 2020).

What was measured:
human V1a receptor = target: T1, human V1a receptor (Homo sapiens, UniProt P37288); assay: Cellular in vitro assay for vasopressin receptor activity, V1a cell line (aequorin luminescence); assay type: cell-based; conditions: for IC50: CHO cell line transfected with human V1a receptor, agonist [Arg8]-vasopressin at EC50 concentration, read-out: IC50hV1a; for ratio IC50 hV2/hV1a: ratio of the IC50 on human V2 to the IC50 on human V1a
T1 construct: expressed in transfected cells; host or cells: CHO K1 (ATCC), also stably transfected with a modified aequorin
T1 sequence (P37288 whole entry): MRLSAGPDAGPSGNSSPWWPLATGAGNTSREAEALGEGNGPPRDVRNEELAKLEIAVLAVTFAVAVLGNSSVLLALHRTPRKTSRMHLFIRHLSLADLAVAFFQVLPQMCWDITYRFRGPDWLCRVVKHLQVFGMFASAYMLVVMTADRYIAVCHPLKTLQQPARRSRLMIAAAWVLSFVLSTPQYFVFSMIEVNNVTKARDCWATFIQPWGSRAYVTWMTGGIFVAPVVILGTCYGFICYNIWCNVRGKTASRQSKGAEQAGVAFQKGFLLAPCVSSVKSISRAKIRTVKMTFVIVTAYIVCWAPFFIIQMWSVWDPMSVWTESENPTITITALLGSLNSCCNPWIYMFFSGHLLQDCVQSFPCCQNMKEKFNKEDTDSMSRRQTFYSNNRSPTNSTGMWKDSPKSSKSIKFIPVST
Method in brief: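 CHO K1 cells stably expressing human V1a receptor with aequorin photoprotein, loaded overnight with coelenterazine. Compounds preincubated 10 min at various concentrations, then challenged with [Arg^8]-vasopressin at EC50 concentration. Calcium-driven luminescence read immediately; IC50 values derived.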

human V2 receptor = target: T2, human V2 receptor (Homo sapiens, UniProt P30518); assay: Cellular in vitro assay for vasopressin receptor activity, V2 cell line (CRE-luciferase); assay type: cell-based; conditions: CHO cell line transfected with human V2 receptor; agonist [Arg8]-vasopressin at EC50 concentration, 3 hours; read-out: IC50hV2
T2 construct: expressed in transfected cells; host or cells: CHO K1 (ATCC) line expressing firefly luciferase under a CRE-responsive promoter
T2 sequence (P30518 whole entry): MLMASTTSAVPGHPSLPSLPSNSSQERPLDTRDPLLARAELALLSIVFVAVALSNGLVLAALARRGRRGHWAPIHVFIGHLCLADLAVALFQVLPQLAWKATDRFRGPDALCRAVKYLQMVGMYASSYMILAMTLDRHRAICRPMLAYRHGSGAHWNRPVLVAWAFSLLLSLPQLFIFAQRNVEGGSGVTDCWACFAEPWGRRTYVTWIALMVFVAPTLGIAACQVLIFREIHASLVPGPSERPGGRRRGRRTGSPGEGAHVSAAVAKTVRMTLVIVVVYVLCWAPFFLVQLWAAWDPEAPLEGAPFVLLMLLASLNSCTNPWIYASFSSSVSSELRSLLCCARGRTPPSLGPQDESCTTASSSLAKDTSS

IC50 (human V1a receptor) [nM]	ratio IC50 hV2/hV1a (human V1a receptor)	IC50 (human V2 receptor) [nM]	Compound
41	0.3	11.9	CCc1cccc(C)c1-n1nc(Cn2nc(-c3ccc(Cl)cc3)n(C[C@H](O)C(F)(F)F)c2=O)nc1C(C)(F)F [Example 73, 5-(4-Chlorophenyl)-2-{[5-(1,1-difluoroethyl)-1-(2-ethyl-6-methylphenyl)-1H-1,2,4-triazol-3-yl]methyl}-4-[(2S)-3,3,3-trifluoro-2-hydroxypropyl]-2,4-dihydro-3H-1,2,4-triazol-3-one]
1	3.4	3.4	CC(F)(F)c1nc(Cn2nc(-c3ccc(Cl)cc3)n(C[C@H](O)C(F)(F)F)c2=O)nn1-c1ncccc1Cl [Example 58, 5-(4-Chlorophenyl)-2-{[1-(3-chloropyridin-2-yl)-5-(1,1-difluoroethyl)-1H-1,2,4-triazol-3-yl]methyl}-4-[(2S)-3,3,3-trifluoro-2-hydroxypropyl]-2,4-dihydro-3H-1,2,4-triazol-3-one]
0.85	6.4	5.4	O=c1n(Cc2nc(C(F)(F)C3(O)CCCC3)n(-c3ccccc3Cl)n2)nc(-c2ccc(Cl)cc2)n1C[C@H](O)C(F)(F)F [Example 75, 5-(4-Chlorophenyl)-2-({1-(2-chlorophenyl)-5-[difluoro(1-hydroxycyclopentyl)methyl]-1H-1,2,4-triazol-3-yl}methyl)-4-[(2S)-3,3,3-trifluoro-2-hydroxypropyl]-2,4-dihydro-3H-1,2,4-triazol-3-one]
22.2	11.7	261	CC(F)c1nc(Cn2nc(-c3ccc(Cl)cc3)n(C[C@H](O)C(F)(F)F)c2=O)nn1-c1ccccc1C#N (single isomer, unassigned) [Example 39]

Continued, compound first:

Compound	IC50 (human V1a receptor) [nM]	ratio IC50 hV2/hV1a (human V1a receptor)	IC50 (human V2 receptor) [nM]
CC(F)c1nc(Cn2nc(-c3ccc(Cl)cc3)n(C[C@H](O)C(F)(F)F)c2=O)nn1-c1ccccc1OC(F)(F)F (mixture of isomers) [Example 25, 5-(4-Chlorophenyl)-2-({5-[1-fluoroethyl]-1-[2-(trifluoromethoxy)phenyl]-1H-1,2,4-triazol-3-yl}methyl)-4-[(2S)-3,3,3-trifluoro-2-hydroxypropyl]-2,4-dihydro-3H-1,2,4-triazol-3-one]	2.7	6.3	17
CC(F)c1nc(Cn2nc(-c3ccc(Cl)cc3)n(C[C@H](O)C(F)(F)F)c2=O)nn1-c1ccccc1OC(F)F (single isomer, unassigned) [Example 33]	2.15	0.8	1.8
Cc1ccccc1-n1nc(Cn2nc(-c3ccc(Cl)cc3)n(C[C@H](O)C(F)(F)F)c2=O)nc1C(C)F (mixture of isomers) [Example 34, 5-(4-Chlorophenyl)-2-({5-[1-fluoroethyl]-1-(2-methylphenyl)-1H-1,2,4-triazol-3-yl}methyl)-4-[(2S)-3,3,3-trifluoro-2-hydroxypropyl]-2,4-dihydro-3H-1,2,4-triazol-3-one]	0.71	1.2	0.84
CC(F)c1nc(Cn2nc(-c3ccc(Cl)cc3)n(C[C@H](O)C(F)(F)F)c2=O)nn1-c1ncccc1Cl (mixture of isomers) [Example 19, 5-(4-Chlorophenyl)-2-({1-(3-chloropyridin-2-yl)-5-[1-fluoroethyl]-1H-1,2,4-triazol-3-yl}methyl)-4-[(2S)-3,3,3-trifluoro-2-hydroxypropyl]-2,4-dihydro-3H-1,2,4-triazol-3-one]	2.85	5.2	14.7
